# Results as given in ChEMBL document CHEMBL1201862, “PubChem BioAssay data set” (2004).
#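 These data come from cells grown in 96-well plates and exposed to compound for 48 hours at five concentrations. The concentration for 50% growth inhibition is given as GI50.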 The source made the active and inactive calls. Cut-off read from the data, not from the text of the source: active = GI50 up to about 1.1 µM and inactive = higher.
# How the values were obtained:
# Assay in all cases: inhibition of tumour cell growth, NCI panel, 48 h
# MOLT-4 = tested on: MOLT-4
# HCT-15 = tested on: HCT-15
# DMS-273 = tested on: DMS-273
# RXF 393 = tested on: RXF 393
# SF-295 = tested on: SF-295
# SF-268 = tested on: SF-268
# COLO 205 = tested on: COLO 205
# SNB-19 = tested on: SNB-19
# M19-MEL = tested on: M19-MEL
# LOX IMVI = tested on: LOX IMVI
# SN12C = tested on: SN12C
# HOP-18 = tested on: HOP-18
# HT-29 = tested on: HT-29
# EKVX = tested on: EKVX
# KM12 = tested on: KM12
# UACC-257 = tested on: UACC-257
# U-251 = tested on: U-251
# IGROV-1 = tested on: IGROV-1
# SNB-78 = tested on: SNB-78
# A549 = tested on: A549
# CCRF-CEM = tested on: CCRF-CEM
# NCI-H226 = tested on: NCI-H226
# NCI-H522 = tested on: NCI-H522
# A498 = tested on: A498
# 786-0 = tested on: 786-0
# TK-10 = tested on: TK-10
# CAKI-1 = tested on: CAKI-1
# OVCAR-8 = tested on: OVCAR-8
# NCI-H23 = tested on: NCI-H23
# KM-20L2 = tested on: KM-20L2
# HCC 2998 = tested on: HCC 2998
# Malme-3M = tested on: Malme-3M
# K562 = tested on: K562
# SK-MEL-2 = tested on: SK-MEL-2
# LXFL 529 = tested on: LXFL 529
# SW-620 = tested on: SW-620
# OVCAR-4 = tested on: OVCAR-4
# NCI-H460 = tested on: NCI-H460
# SK-MEL-5 = tested on: SK-MEL-5
# DLD-1 = tested on: DLD-1
# OVCAR-3 = tested on: OVCAR-3
# M14 = tested on: M14
# SF-539 = tested on: SF-539
# ACHN = tested on: ACHN
# UO-31 = tested on: UO-31
# SK-MEL-28 = tested on: SK-MEL-28
# OVCAR-5 = tested on: OVCAR-5
# RPMI-8226 = tested on: RPMI-8226
# HOP-62 = tested on: HOP-62
# HL-60 = tested on: HL-60
# SNB-75 = tested on: SNB-75
# SK-OV-3 = tested on: SK-OV-3
# HCT-116 = tested on: HCT-116
# SR = tested on: SR
# DMS-114 = tested on: DMS-114
structure (smiles),measurement,setting,value
O=C(CSc1nnc(Cc2ccccc2)o1)Nc1cccc(Cl)c1,GI50,MOLT-4,79.3 µM (inactive)
same,GI50,HCT-15,98.4 µM
same,GI50,DMS-273,83 µM (inactive)
same,GI50,RXF 393,> 100 µM (inactive)
same,GI50,SF-295,68.7 µM (inactive)
same,GI50,SF-268,> 100 µM (inactive)
same,GI50,COLO 205,> 100 µM (inactive)
same,GI50,SNB-19,> 100 µM (inactive)
same,GI50,M19-MEL,> 100 µM (inactive)
same,GI50,LOX IMVI,64.4 µM (inactive)
same,GI50,SN12C,97.1 µM (inactive)
same,GI50,HOP-18,87.1 µM (inactive)
same,GI50,HT-29,66.2 µM (inactive)
same,GI50,EKVX,> 100 µM (inactive)
same,GI50,KM12,> 100 µM (inactive)
same,GI50,UACC-257,> 100 µM (inactive)
same,GI50,U-251,> 100 µM (inactive)
same,GI50,IGROV-1,> 100 µM (inactive)
same,GI50,SNB-78,> 100 µM (inactive)
same,GI50,A549,> 100 µM (inactive)
same,GI50,CCRF-CEM,71 µM (inactive)
same,GI50,NCI-H226,> 100 µM (inactive)
same,GI50,NCI-H522,40.9 µM (inactive)
same,GI50,A498,> 100 µM (inactive)
same,GI50,786-0,96.8 µM (inactive)
same,GI50,TK-10,> 100 µM (inactive)
same,GI50,CAKI-1,92.5 µM (inactive)
same,GI50,OVCAR-8,> 100 µM (inactive)
same,GI50,NCI-H23,66.2 µM (inactive)
same,GI50,KM-20L2,> 100 µM (inactive)
same,GI50,HCC 2998,96.6 µM (inactive)
same,GI50,Malme-3M,63.7 µM (inactive)
same,GI50,K562,46.6 µM (inactive)
same,GI50,SK-MEL-2,70.8 µM (inactive)
same,GI50,LXFL 529,44.1 µM (inactive)
same,GI50,SW-620,> 100 µM (inactive)
same,GI50,OVCAR-4,51.2 µM (inactive)
same,GI50,NCI-H460,> 100 µM (inactive)
same,GI50,SK-MEL-5,76.7 µM (inactive)
same,GI50,DLD-1,> 100 µM (inactive)
same,GI50,OVCAR-3,31.9 µM (inactive)
same,GI50,M14,69 µM (inactive)
same,GI50,SF-539,> 100 µM (inactive)
same,GI50,ACHN,46.9 µM (inactive)
same,GI50,UO-31,> 100 µM (inactive)
same,GI50,SK-MEL-28,> 100 µM (inactive)
same,GI50,OVCAR-5,> 100 µM (inactive)
same,GI50,RPMI-8226,72.4 µM (inactive)
same,GI50,HOP-62,> 100 µM (inactive)
same,GI50,HL-60,> 100 µM (inactive)
same,GI50,SNB-75,25.9 µM (inactive)
same,GI50,SK-OV-3,> 100 µM (inactive)
same,GI50,HCT-116,> 100 µM (inactive)
C=C=C[P+](c1ccccc1)(c1ccccc1)c1ccccc1,GI50,MOLT-4,2.6 µM (inactive)
same,GI50,HCT-15,11.5 µM
same,GI50,DMS-273,27.6 µM (inactive)
same,GI50,SF-268,15.3 µM (inactive)
same,GI50,COLO 205,2.57 µM (inactive)
same,GI50,M19-MEL,14.5 µM (inactive)
same,GI50,SN12C,3.78 µM (inactive)
same,GI50,HOP-18,46.7 µM (inactive)
same,GI50,KM12,13 µM (inactive)
same,GI50,UACC-257,7.06 µM (inactive)
same,GI50,U-251,3.56 µM (inactive)
same,GI50,IGROV-1,31.5 µM (inactive)
same,GI50,SNB-78,16.9 µM (inactive)
same,GI50,A549,26.8 µM (inactive)
same,GI50,CCRF-CEM,2.94 µM (inactive)
same,GI50,NCI-H522,2.24 µM (inactive)
same,GI50,A498,93.8 µM (inactive)
same,GI50,786-0,5.02 µM (inactive)
same,GI50,TK-10,26.2 µM (inactive)
same,GI50,OVCAR-8,3.13 µM (inactive)
same,GI50,SR,21.3 µM (inactive)
same,GI50,HCC 2998,42.6 µM (inactive)
same,GI50,Malme-3M,13.2 µM (inactive)
same,GI50,K562,3.4 µM (inactive)
same,GI50,SK-MEL-2,10.7 µM (inactive)
same,GI50,LXFL 529,3.91 µM (inactive)
same,GI50,OVCAR-4,21.9 µM (inactive)
same,GI50,NCI-H460,18.2 µM (inactive)
same,GI50,DMS-114,8.69 µM (inactive)
same,GI50,SK-MEL-5,5.86 µM (inactive)
same,GI50,DLD-1,5.61 µM (inactive)
same,GI50,OVCAR-3,5.57 µM (inactive)
same,GI50,M14,6.05 µM (inactive)
same,GI50,SF-539,14.8 µM (inactive)
same,GI50,ACHN,14.5 µM (inactive)
same,GI50,UO-31,35.2 µM (inactive)
same,GI50,SK-MEL-28,21.4 µM (inactive)
same,GI50,RPMI-8226,1.55 µM (inactive)
same,GI50,HOP-62,53.1 µM (inactive)
same,GI50,HL-60,5.08 µM (inactive)
same,GI50,SNB-75,8.79 µM (inactive)
same,GI50,SK-OV-3,45.6 µM (inactive)
same,GI50,HCT-116,3.37 µM (inactive)
